The source of these data is ChEMBL document CHEMBL3286130, “8-Substituted 2-alkynyl-N(9)-propargyladenines as A2A adenosine receptor antagonists” (Bioorg Med Chem, 2014).

Structures are written as SMILES. Active and inactive are the calls of the source. The rule behind the calls is not given here.

The target of assay [1] is Adenosine receptor A2a (Rattus norvegicus, UniProt P30543). Nature of the assay: Antagonist activity at adenosine A2A receptor in 5-HT-treated Wistar rat femoral vein assessed as inhibition of 2-octyn-1-yladenosine-induced vasodilation incubated for 10 mins prior to addition of 5-HT.
Sequence of Adenosine receptor A2a (Rattus norvegicus, UniProt P30543) (P30543 whole entry): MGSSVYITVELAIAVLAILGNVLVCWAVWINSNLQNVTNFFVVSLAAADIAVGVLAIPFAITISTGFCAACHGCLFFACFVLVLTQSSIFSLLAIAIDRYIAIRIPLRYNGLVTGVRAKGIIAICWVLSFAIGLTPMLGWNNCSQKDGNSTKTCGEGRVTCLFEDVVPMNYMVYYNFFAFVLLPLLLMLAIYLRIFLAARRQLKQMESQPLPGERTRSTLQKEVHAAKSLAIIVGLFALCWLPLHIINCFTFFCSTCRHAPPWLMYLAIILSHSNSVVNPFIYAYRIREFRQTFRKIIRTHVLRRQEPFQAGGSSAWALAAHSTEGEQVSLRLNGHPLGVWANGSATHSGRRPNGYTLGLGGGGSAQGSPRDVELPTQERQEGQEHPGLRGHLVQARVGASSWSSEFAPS
The target in assay [2] is Adenosine receptor A2a (Rattus norvegicus) (UniProt P30543). Nature of the assay: Potency index, ratio of istradefylline IC50 to compound IC50 for adenosine A2A receptor in 5-HT-treated Wistar rat femoral vein assessed as inhibition of 2-octyn-1-yladenosine-induced vasodilation.
Sequence of Adenosine receptor A2a (Rattus norvegicus) (P30543 whole entry): as above
Assay [3] deals with Rattus norvegicus. In words: Antiparkinsonian activity in unilateral 6-hydroxydopamine-lesioned Sprague-Dawley rat assessed as potentiation of L-DOPA-induced turning behavior at 3 mg/kg, po measured for 15 mins. Format: functional, organism-based. On the set-up: dose 3 mg/kg.
The test system of assay [4] is Mus musculus. Nature of the assay: Anticataleptogenic activity in po dosed ddY mouse assessed as reduction in haloperidol-induced catelepsy measured after 5 hrs. Format: functional. The following applies: for minimal effective dose: read-out: MED.
The test system of assay [5] is Mus musculus. Nature of the assay: Anticataleptogenic activity in ddY mouse assessed as reduction in haloperidol-induced catelepsy at 3 mg/kg, po measured after 1 to 7 hrs. Format: functional, organism-based. On the set-up: dose 3 mg/kg.
Assay [6] has as its target Adenosine receptor A2a (Homo sapiens, UniProt P29274). Nature of the assay: biochemical.
Description: Displacement of [3H]-CGS-21680 from human adenosine A2A receptor expressed in HEK293 cells after 90 mins
For assay [7], the system named is Rattus norvegicus. In words: Antiparkinsonian activity in unilateral 6-hydroxydopamine-lesioned Sprague-Dawley rat assessed as induction of stereotyped behavior at 3 mg/kg, po measured for 15 mins. Also on record: dose 3 mg/kg. Format: functional, organism-based.

Sequence of Adenosine receptor A2a (Homo sapiens, UniProt P29274) (P29274 whole entry): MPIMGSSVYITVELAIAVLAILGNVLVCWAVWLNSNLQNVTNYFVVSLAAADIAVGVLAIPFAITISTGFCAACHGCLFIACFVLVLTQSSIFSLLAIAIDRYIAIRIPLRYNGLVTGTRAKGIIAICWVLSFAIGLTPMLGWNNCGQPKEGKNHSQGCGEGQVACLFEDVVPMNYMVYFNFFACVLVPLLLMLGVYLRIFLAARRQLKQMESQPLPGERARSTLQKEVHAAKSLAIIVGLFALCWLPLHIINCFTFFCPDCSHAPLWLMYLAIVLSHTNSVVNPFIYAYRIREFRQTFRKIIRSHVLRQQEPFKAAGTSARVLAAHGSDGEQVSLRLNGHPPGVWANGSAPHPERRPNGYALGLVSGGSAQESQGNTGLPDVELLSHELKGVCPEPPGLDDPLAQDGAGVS

A word on the IC50: it is the concentration that gives 50% inhibition. On to `CCCCCCC#Cc1nc(N)c2ncn(CCO)c2n1`, for which, at Adenosine receptor A2a [1], the IC50 is above 10000 nM.

Regarding `C#CCn1c(-n2nccn2)nc2c(N)nc(C#CCCCCCC)nc21`, at Adenosine receptor A2a [1], the IC50 is 1.9 nM. Turning to `CCCCCCC#Cc1nc(N)c2ncn(C3CCCC3)c2n1`, the IC50 on Adenosine receptor A2a [1] was above 10000 nM. In the case of `C#CCn1c(-c2cccc(F)c2)nc2c(N)nc(C#CCCCCCC)nc21`, the IC50 on Adenosine receptor A2a [1] was found to be 22.8 nM.

As to `CCCCCCC#Cc1nc(N)c2ncn(Cc3ccccc3)c2n1`, the IC50 at Adenosine receptor A2a [1] is above 10000 nM. Same read-out and setting: the same measure for `CCCCCCC#Cc1nc(N)c2ncn(CC)c2n1`: 6700 nM; for `C#CCn1cnc2c(N)nc(C#CCCCCCC)nc21`: 200 nM. Take `C#CCn1cnc2c(N)nc(C#CC3(O)CCCCC3)nc21`: the concentration for half-maximal inhibition (IC50) on Adenosine receptor A2a [1] worked out at 97.3 nM. On the same count and under the same terms, to `C#CCn1c(Br)nc2c(N)nc(C#CC3(O)CCCCC3)nc21` belongs 0.5 nM; to `C=CCn1cnc2c(N)nc(C#CCCCCCC)nc21`, above 10000 nM.

For the compound `C#CCn1c(-c2ccco2)nc2c(N)nc(C#CC3(O)CCCCC3)nc21`, the Ratio IC50 in assay [2] was determined as 570. Also, the IC50 at Adenosine receptor A2a [1] turned out to be 0.4 nM. One may read the Ki as the equilibrium dissociation constant of an inhibitor or competing ligand from its target. A high value points to lower affinity. As for `C#CCn1c(Br)nc2c(N)nc(C#CCCCCCC)nc21`, the outcome in the assay on Rattus norvegicus [3] and in the assay on Mus musculus [5] was Active. Besides, the IC50 at Adenosine receptor A2a [1] is 5.1 nM. Besides, the Activity result with Mus musculus [4] is “Dose-dependent effect”. The minimal effective dose in the assay on Mus musculus [4] came to 3 mg/kg. Also, the affinity on Adenosine receptor A2a [6] corresponds to a Ki of 0.56 nM. Besides, the outcome with Rattus norvegicus [7] was inactive. Regarding `CCCCCCC#Cc1nc(N)c2ncn(CCC)c2n1`, on Adenosine receptor A2a [1], the IC50 was above 10000 nM.

Regarding `C#CCn1c(-c2ccccc2)nc2c(N)nc(C#CCCCCCC)nc21`, the half-maximal inhibitory concentration (IC50) at Adenosine receptor A2a [1] is 75.5 nM. For `CCCCCCC#Cc1nc(N)c2ncn(CC#N)c2n1`, the IC50 on Adenosine receptor A2a [1] was above 10000 nM. On to `CCn1c(=O)c2c(nc(/C=C/c3ccc(OC)c(OC)c3)n2C)n(CC)c1=O` [ISTRADEFYLLINE], for which, in the assay with Mus musculus [4], the Activity result is “Dose-dependent effect” and the minimal effective dose is 3 mg/kg. Also, the result in the assay with Mus musculus [5] was Active.

With `C#CCn1c(Cl)nc2c(N)nc(C#CCCCCCC)nc21`, the IC50 at Adenosine receptor A2a [1] was 6 nM. Turning to `C#CCn1c(-c2ccco2)nc2c(N)nc(C#CCCCCCC)nc21`, the IC50 on Adenosine receptor A2a [1] was 3.6 nM.

With `CCCCCCC#Cc1nc(N)c2ncn(C)c2n1`, at Adenosine receptor A2a [1], the IC50 came to 9000 nM. As to `C#CCn1c(Cl)nc2c(N)nc(C#CC3(O)CCCCC3)nc21`, the IC50 on Adenosine receptor A2a [1] came to 3 nM.
